From patent US12030903B2, “Antiviral compounds” (Gilead Sciences, Inc., priority 2020, dated 2024) come the findings set out here.

A value given as a limit tells only on which side of the number the result lay.

One data set relates to RSV strain A2. Briefly: RSV HEp-2 EC50 (infectious cytopathic cell protection assay). The following applies: human respiratory syncytial virus, HEp-2, 96 h, read-out: RSV Hep-2 EC50. It counts as cell-based, RSV strain A2; HEp-2 cells. The method, then: Example 86. RSV HEp-2 EC50
Antiviral activity against RSV is determined using an infectious cytopathic cell protection assay in HEp-2 cells. In this assay, compounds inhibiting viral infection and/or replication produce a cytoprotective effect against the virus-induced cell killing that can be quantified using a cell viability reagent. The techniques used here are novel adaptations of methods described in published literature (Chapman et al., Antimicrob Agents Chemother. 2007, 51(9):3346-53.)
HEp-2 cells are obtained from ATCC (Manassas, VI) and maintained in MEM media supplemented with 10% fetal bovine serum and penicillin/streptomycin. Cells are passaged twice a week and kept at subconfluent stage. Commercial stock of RSV strain A2 (Advanced Biotechnologies, Columbia, MD) is titered before compound testing to determine the appropriate dilution of the virus stock that generates desirable cytopathic effect in HEp-2 cells.
For antiviral tests, HEp-2 cells are grown in large cell culture flasks to near confluency but not fully so. The compounds to be tested are prediluted in DMSO in 384-well compound dilution plates, either in an 8 or 40 sample per plate standardized dose response format. 3-fold serial dilution increments of each test compound are prepared in the plates and test samples are transferred via acoustic transfer apparatus (Echo, Labcyte) at 100 nL per well into cell culture assay 384-well plates. Each compound dilution is transferred in single or quadruplicate samples into dry assay plates, which are stored until assay is ready to go. The positive and negative controls are laid out in opposite on ends of the plate in vertical blocks (1 column).
Subsequently, an infectious mixture is prepared using an appropriate dilution of virus stock previously determined by titration with cells at a density of 50,000/mL and 20 uL/well is added to test plates w/compounds via automation (uFlow, Biotek). Each plate includes negative and positive controls (16 replicates each) to create 0% and 100% virus inhibition standards, respectively. Following the infection with RSV, testing plates are incubated for 4 days in a 37° C. cell culture incubator. After the incubation, a cell viability reagent, Cell TiterGlo (Promega, Madison, WI) is added to the assay plates, which are incubated briefly, and a luminescent readout is measured (Envision, Perkin Elmer) in all the assay plates. The RSV-induced cytopathic effect, percentage inhibition, is determined from the levels of remaining cell viability. […] Various potent anti-RSV tool compounds are used as positive controls for antiviral activity.

Data set [1] is described as follows: Huh-7 CC50 (CellTiter Glo viability). It counts as cell-based, Human. The following applies: human, Huh7 hepatocarcinoma cells. How it is done:
Human hepatocarcinoma 7 (Huh7) cells were maintained in 10% FCS-containing complete DMEM. On day of assay, cells were trypsinized with 0.1% Trypsin-EDTA, washed and cultured in triplicate at 1-2×10^4 cells/well in 96-well plates with compounds dispensed at graded doses (Hewlett-Packard D300 Digital Dispenser). All wells were normalized to 0.25% DMSO. After 48 hours, CellTiter Glo (Promega) was added and incubated for 10 minutes at room temp before reading on a luminometer. % viability curves were calculated against no compound and no cell control wells. CC50 values were determined using Prism Graphpad software.
(ATP-based viability assays read luminescence as a measure of living cells.)

Data set [2] can be described thus: HEp-2 CC50 (cytotoxicity in uninfected HEp-2 cells). The conditions noted are these: human, CellTiter Glo. The format is cell-based. The method, then: Instead, an uninfected cell mixture at the same density is added at 20 uL/well to plates containing prediluted compounds, also at 100 nL/sample. Assay plates are then incubated for 4 days followed by a cell viability test using the same CellTiter Glo reagent addition and measurement of luminescent readouts. Untreated cell and cells treated at 2 μM puromycin (Sigma, St. Louis, MO) serve as 100% and 0% cell viability control, respectively.

The test system of data set [3] is Dengue serotype 2 New Guinea C (NGC) strain. Briefly: DENV-2 Huh-7 EC50 (qPCR of viral RNA in infected Huh7 cells). It counts as cell-based. The conditions noted are these: Dengue virus, DENV2, Huh-7, Huh7 cells infected with Dengue serotype 2 NGC, MOI=0.1, 48 hours. How it is done:
Huh7 (Human hepatocarcinoma 7) cells were maintained in 10% FCS-containing DMEM complete media. On the day of the assay, cells were trypsinized (0.1% Trypsin-EDTA), washed and infected for 2 hours in serum-free DMEM with Dengue serotype 2 New Guinea C (NGC) strain at MOI=0.1 with gentle agitation at 37° C. After 2 hours, cells were washed with serum-free media and suspended in 10% FCS-containing DMEM (Gibco, supplemented with sodium pyruvate, NEAA, Penicillin-Streptomycin). 10^5 cells were plated in triplicate in 96-well plates with compounds dispensed at graded doses (Hewlett-Packard D300 Digital Dispenser). All wells were normalized to 0.25% DMSO. At 48 hours, cells were washed with 1× PBS and all supernatants removed. Total RNA was extracted using RNEasy 96 plates (Qiagen) and used to generate first-strand cDNA using XLT cDNA 5× Supermix (QuantaBio). cDNA was used as a template in a Taqman qPCR duplex reaction specific to DENV2 viral and GAPDH gene expression. EC50 values were determined using Prism Graphpad software, with normalization to a positive control and no compound negative control wells.
(Quantitative PCR measures a nucleic acid by following its amplification.)

The term EC50 denotes the concentration that produces a half-maximal response. Usually CC50 stands for the concentration giving 50% cytotoxicity. A higher CC50 goes with better tolerance by the cells. As to `CCOC(=O)[C@H](C)NP(=O)(OC[C@@]1(CF)O[C@@H](c2ccc3c(N)ncnn23)[C@H](O)[C@@H]1O)Oc1ccc(C(C)(C)C)cc1` (mixture of isomers) [Example 47, ethyl ((((2R,3S,4R,5S)-5-(4-aminopyrrolo[2,1-f][1,2,4]triazin-7-yl)-2-(fluoromethyl)-3,4-dihydroxytetrahydrofuran-2-yl)methoxy)(4-(tert-butyl)phenoxy)phosphoryl)-L-alaninate], the EC50 in the data set with RSV strain A2 came out at 0.389 µM; in data set [3], 0.65 µM. In data set [1], this compound displayed a CC50 at 48 h of 21.4 µM. For the same compound, it took 65.9 µM to reach half-maximal cytotoxicity in data set [2] (CC50 at 4 days).

Regarding `CCC(=O)O[C@H]1[C@H](c2ccc3c(N)ncnn23)O[C@](CF)(CO[P@@](=O)(N[C@@H](C)C(=O)OCC(CC)CC)Oc2ccccc2)[C@H]1OC(=O)CC` (single isomer, unassigned) [Example 61], the results for the EC50 (in the data set on RSV strain A2; in data set [3]) were 0.855 µM and 0.568 µM, respectively. Also, the CC50 at 48 h in data set [1] turned out to be 15 µM. Moreover, the CC50 at 4 days in data set [2] stood at 19.1 µM.

Take `CCC(CC)COC(=O)[C@H](C)N[P@](=O)(OC[C@@]1(CF)O[C@@H](c2ccc3c(N)ncnn23)[C@H](OC(=O)C(C)C)[C@@H]1OC(=O)C(C)C)Oc1ccccc1` (single isomer, unassigned) [Example 62]: the values for the EC50 (in the data set on RSV strain A2; in data set [3]) were 10.1 µM and 0.662 µM, respectively. The midpoint of cytotoxicity in data set [1], the CC50 at 48 h, lay at 8.09 µM.

`CC(C)C(=O)O[C@H]1[C@H](c2ccc3c(N)ncnn23)O[C@](CF)(CO[P@@](=O)(N[C@@H](C)C(=O)OC2COC2)Oc2ccccc2)[C@H]1OC(=O)C(C)C` (single isomer, unassigned) [Example 73] had a CC50 at 48 h in data set [1] of 9.34 µM. In data set [3], a half-maximal effect (EC50) was put at 0.302 µM.

Consider `CCC(CC)COC(=O)[C@H](C)NP(=O)(OC[C@@]1(CCl)O[C@@H](c2ccc3c(N)ncnn23)[C@H](O)[C@@H]1O)Oc1ccccc1` (stereo partly drawn) [Comp. Ex. 1, 2-ethylbutyl ((((2R,3S,4R,5S)-5-(4-aminopyrrolo[2,1-f][1,2,4]triazin-7-yl)-2-(chloromethyl)-3,4-dihydroxytetrahydrofuran-2-yl)methoxy)(phenoxy)phosphoryl)-L-alaninate, reference compound], for which a half-maximal response in data set [3] (EC50) required 2.33 µM.

For the compound `CCCCCCOC(=O)[C@H](C)NP(=O)(OC[C@@]1(CF)O[C@@H](c2ccc3c(N)ncnn23)[C@H](O)[C@@H]1O)Oc1ccccc1` (stereo partly drawn) [Example 17, hexyl ((((2R,3S,4R,5S)-5-(4-aminopyrrolo[2,1-f][1,2,4]triazin-7-yl)-2-(fluoromethyl)-3,4-dihydroxytetrahydrofuran-2-yl)methoxy)(phenoxy)phosphoryl)-L-alaninate], the EC50 is 0.516 µM in the data set on RSV strain A2 and 0.51 µM in data set [3]. This compound showed a CC50 at 48 h in data set [1] above 25 µM. The same compound came in with a CC50 at 4 days in data set [2] above 100 µM.

For `CC(=O)O[C@H]1[C@H](c2ccc3c(N)ncnn23)O[C@](CF)(CO[P@@](=O)(N[C@@H](C)C(=O)OC(C)C)Oc2ccccc2)[C@H]1OC(C)=O` [Example 20, (2R,3S,4S,5S)-5-(4-aminopyrrolo[2,1-f][1,2,4]triazin-7-yl)-2-(fluoromethyl)-2-((((S)-(((S)-1-isopropoxy-1-oxopropan-2-yl)amino)(phenoxy)phosphoryl)oxy)methyl) tetrahydrofuran-3,4-diyl diacetate], the results for the EC50 (in the data set on RSV strain A2; in data set [3]) were 3.18 µM and 2.57 µM, respectively. In addition, in data set [1], the CC50 at 48 h is above 25 µM. The compound also returned a CC50 at 4 days in data set [2] above 100 µM.

As to `C[C@H](NP(=O)(OC[C@@]1(CF)O[C@@H](c2ccc3c(N)ncnn23)[C@H](O)[C@@H]1O)Oc1ccccc1)C(=O)OCC(C)(C)O` (stereo partly drawn) [Example 26, 2-hydroxy-2-methylpropyl ((((2R,3S,4R,5S)-5-(4-aminopyrrolo[2,1-f][1,2,4]triazin-7-yl)-2-(fluoromethyl)-3,4-dihydroxytetrahydrofuran-2-yl)methoxy)(phenoxy)phosphoryl)-L-alaninate], the figures for the EC50 (with RSV strain A2; in data set [3]) were 39.3 µM and above 24 µM, respectively. Moreover, the CC50 at 48 h in data set [1] was above 25 µM. In addition, the CC50 at 4 days in data set [2] was above 100 µM.

In the case of `CO[C@@H](C)COC(=O)[C@H](C)NP(=O)(OC[C@@]1(CF)O[C@@H](c2ccc3c(N)ncnn23)[C@H](O)[C@@H]1O)Oc1ccccc1` (stereo partly drawn) [Example 30, (S)-2-methoxypropyl ((((2R,3S,4R,5S)-5-(4-aminopyrrolo[2,1-f][1,2,4]triazin-7-yl)-2-(fluoromethyl)-3,4-dihydroxytetrahydrofuran-2-yl)methoxy)(phenoxy)phosphoryl)-L-alaninate], in the data set with RSV strain A2, the EC50 came out at 4.13 µM. This compound yielded a 50% cytotoxic concentration (CC50) at 4 days in data set [2] above 100 µM.

As to `C[C@H](NP(=O)(OC[C@@]1(CF)O[C@@H](c2ccc3c(N)ncnn23)[C@H](O)[C@@H]1O)Oc1ccccc1)C(=O)O[C@@H]1CCN(C)C1` (stereo partly drawn) [Example 35, (R)-1-methylpyrrolidin-3-yl ((((2R,3S,4R,5S)-5-(4-aminopyrrolo[2,1-f][1,2,4]triazin-7-yl)-2-(fluoromethyl)-3,4-dihydroxytetrahydrofuran-2-yl)methoxy) (phenoxy)phosphoryl)-L-alaninate], the figures for the concentration giving a half-maximal response (EC50) (in the data set with RSV strain A2; in data set [3]) were 42.8 µM and above 25 µM, respectively. Moreover, in data set [1], the CC50 at 48 h was above 25 µM. In addition, the CC50 at 4 days in data set [2] was above 100 µM.

For `CO[C@H](C)COC(=O)[C@H](C)NP(=O)(OC[C@@]1(CF)O[C@@H](c2ccc3c(N)ncnn23)[C@H](O)[C@@H]1O)Oc1ccccc1` (stereo partly drawn) [Example 39, (R)-2-methoxypropyl ((((2R,3S,4R,5S)-5-(4-aminopyrrolo[2,1-f][1,2,4]triazin-7-yl)-2-(fluoromethyl)-3,4-dihydroxytetrahydrofuran-2-yl)methoxy)(phenoxy)phosphoryl)-L-alaninate], the EC50 with RSV strain A2 amounted to 2.47 µM. In data set [2], the CC50 at 4 days is above 100 µM.

Take `C[C@H](NP(=O)(OC[C@@]1(CF)O[C@@H](c2ccc3c(N)ncnn23)[C@H](O)[C@@H]1O)Oc1ccccc1)C(=O)OC1CCOCC1` (stereo partly drawn) [Example 64, tetrahydro-2H-pyran-4-yl ((((2R,3S,4R,5S)-5-(4-aminopyrrolo[2,1-f][1,2,4]triazin-7-yl)-2-(fluoromethyl)-3,4-dihydroxytetrahydrofuran-2-yl)methoxy)(phenoxy)phosphoryl)-L-alaninate]: in data set [1], the CC50 at 48 h was above 25 µM. The same compound came in with an EC50 in data set [3] of 2 µM.

In turn, `CCC(CC)COC(=O)[C@H](C)N[P@](=O)(OC[C@@]1(CF)O[C@@H](c2ccc3c(NC(=O)c4ccccc4)ncnn23)[C@H](O)[C@@H]1O)Oc1ccccc1` [Example 75, 2-ethylbutyl ((S)-(((2R,3S,4R,5S)-5-(4-benzamidopyrrolo[2,1-f][1,2,4]triazin-7-yl)-2-(fluoromethyl)-3,4-dihydroxytetrahydrofuran-2-yl)methoxy)(phenoxy)phosphoryl)-L-alaninate] gave an EC50 in data set [3] of 0.175 µM.
